Measurements reported in US20120213826A1, “Use of Pro-Inflammatory Compounds for Promoting Bone Formation” (Imperial Innovations Limited, priority 2009, published 2012).
Entries after “also recorded” stand apart in the source; their conditions may differ. Read-outs that look alike come from different tables or passages of the source.

Columns and labels:
[1] = tested on: muscle-derived stromal cells (MDSC); test: MDSC migration through a transwell membrane; type: cell-based, human
Protocol: Migration of 1×10^4 MDSC through an 8 μm pore transwell membrane over 36 hours, in response to fracture supernatant with the addition of AbTNF-α, AbIL-6 and AbIL-1β. The IgG^1 immunoglobulin was used as the antibody control. B: Migration in response to rhTNF-α, rhIL-6 and rhIL-1β in human serum-containing media. Results represent change in cell number, expressed as a percentage of the supernatant, or media only control. Each experiment was performed 3 times (n=3) using 3 fracture supernatants (in A). Results represent mean of 3 experiments ±SEM. *: P<0.05; **: P<0.01; ***: P<0.001; 1-way ANOVA with Bonferroni's multiple comparison test.
MDSC must be recruited to the fracture site from adjacent muscle. Next we assessed the efficacy of the pro-inflammatory cytokines in attracting MDSC in vitro using a transwell assay. 1×10^4 MDSC were seeded onto a 8 μm transwell membrane in serum free media. Next day, the transwell membrane was added to a well containing 10% human serum-containing media +IL-1β, IL6 and TNFα at the end concentrations shown. At 24 hrs the membrane was cleared of any cells on the seeded side, fixed and stained. IL-1β appeared not promote MDSC chemotaxis.
500 μl serum free media was added to each well of a 24 well plate. 8 μm pore transwell membranes (VWR International Ltd) were then added to the wells. 1×10^4 MDSC in serum free media were added to the upper chamber of each transwell membrane. At 12 hours the serum-free media was replaced with test or control media or supernatant and incubated at 37° C. for 36 hours. The upper chambers were then cleared of cells and cell debris using a cotton bud, in sweeping motions. The membrane was then washed and fixed using 10% neutral buffered formalin for 1 hour. After washing, the membrane was then added to a 1% crystal violet solution for 1 hour. After further washing, the membranes were viewed under light microscopy at 20 times magnification, using an Olympus CKX41 microscope with a QICAM camera, (QIMAGING, GT vision LLC). The number of cells present on the underside of the transwell membrane in any random field was counted 3 times and the mean calculated. Cell migration was calculated against the supernatant or human serum-containing (control) media and the number expressed as a percentage relative to the control media.

[2] = cited from earlier work
fractured ribs = details: daily intraperitoneal 400 μg/kg body weight per day after fracture, rats; cited from earlier work
[3] = tested on: murine open tibial fracture; test: Murine open tibial fracture model, periosteally stripped (histology, CT scans); type: in vivo, C57BI/6 mice
[4] = tested on: muscle-derived stromal cells (MDSC); test: Bone nodule formation by MDSC (alizarin red staining); type: cell-based, human
Source text: FIG. 26 TNF-α and IL-6 promote osteogenic differentiation of MDSC A-D: ALP quantification assays after culture of 1×10^4 MDSC for 7 days in a 96-well plate in triplicate with: A: fracture supernatant, ±antibody neutralization of BMPs 2/4 7 and to TGF-β. The immunoglobulin isotype controls used included IgG^1 for AbBMP-2/4 and AbTGF-β, and IgG^2B for Ab-BMP-7. B: human serum containing culture medium with the addition of recombinant human BMPs and TGF-β. C: fracture supernatant±antibody neutralization of TNF-α, IL-6 and IL-1β. The IgG^1 immunoglobulin was used as the antibody isotype control. D: human serum-containing culture medium with the addition of recombinant human TNF-α, IL-6 and IL-1β. E: Alizarin red staining for bone nodule formation after culture of 1×10^4 MDSC in human serum-containing media. Recombinant human cytokine at the optimal dose indicated by D, was added for the first 3 days ONLY, and the cells were subsequently cultured in media for 32 days. A representative image from a single well is shown. All experiments were performed 3 times, in triplicate (n=3) using MDSC from 3 donors. Values for A-D represent a mean from 3 experiments ±SEM, using supernatant from 3 donors in A and C. *: P<0.05; **: P<0.01; ***: P<0.001; 1-way ANOVA with Bonferroni's multiple comparison test in A and C and with Dunnett's multiple comparison test against the media only control in B and D.
1×10^4 MDSC were added to wells of a 24-well plate in triplicate. The cells were cultured for 35-40 days in osteogenic media (DMEM with 10% fetal calf serum and 1% penicillin/streptomycin also containing 100 nM dexamethasone (SIGMA), 1 mM β-glycerol phosphate and […] ascorbic acid), supernatant or media containing recombinant cytokines (with one media change per week) the cells were fixed with 2 ml 10% neutral buffered formalin at room temperature for 15 min. The plate was then washed twice with excess PBS. 1 ml filtered 40 mM alizarin red solution (pH 4.1) was added to each well and agitated at room temperature for 30 minutes. The excess dye was then aspirated and the plate washed four times in distilled water with gentle agitation. Finally, the plates were turned upside-down on paper to dry. Bone nodules appeared red under light microscopy. Images were taken at 20 times magnification and performed as above.

[5] = tested on: muscle-derived stromal cells (MDSC); test: MDSC proliferation (CellTiter-Glo luminescent cell viability assay); type: cell-based, human
Protocol: CellTiter-Glo® luminescent cell viability assay for MDSC in culture with A: TNF-α, B: IL-6 and C: IL-1β. 2.5×10^3 cells were cultured in triplicate for 1, 3 and 5 days in human serum-containing media ± recombinant human cytokine at the concentration indicated. The number of viaBIe cells in culture was determined using the assay, where luminescent signal is directly proportional to the concentration of ATP from viaBIe cells.
In order to test this hypothesis, proliferation of MDSC in human serum-containing media with rhTNF-α, rhIL-6 and rhIL-1β was tested using the CellTiter-Glo® luminescent cell viability assay was used (Promega Corp., Madison, Wis.).
This method assays the number of viaBIe cells in culture, by measuring adenosine triphosphate (ATP), where the luminescent signal is directly proportional to the number of ATP present.

osteoclast = details: TNF-α at 1 ng/ml; cited from earlier work

With TNFα the “chemotaxis / migration of MDSC” value ([1]; Example 1, transwell, 10% human serum-containing media, 24 hrs (FIG. 14)) was “promote chemotaxis of MDSC; also recorded: promoted migration of MDSC”, the “migration of MDSC” value ([1]; Example 3, 8 μm transwell, 36 hours, recombinant cytokine in human serum-containing media (FIG. 27B)) was “chemo attractant for MDSC” and the “optimal concentration for MDSC migration” value ([1]; Example 3, transwell, 36 hours (FIG. 27B)) was 1 pg/mL. The plasma half life ([2]; in the presence of soluble TNFα receptors) was “up to 6 hours”, the plasma half life ([2]; in vivo) was “less than 1 hour” and the fracture healing (fractured ribs) was “significantly inhibited”. The “optimal dose for fracture healing” value ([3]; 20 μl in PBS at fracture site, histology day 14 (FIG. 18)) was 50 ng/mL, the “optimal dose range for fracture healing” value ([3]; 20 μl in PBS, 1 ng/ml equivalent to 1 ng/kg, histology day 14 (FIG. 18)) was “around 50 ng/kg” and the “healing of tibial fractures by CT scans” value ([3]; 28 days post injury, local administration at fracture site (TNFα 50 ng/kg and HMGB1 at time of fracture and 24 hr later) (FIG. 19, 30)) was “improved healing”. The fracture healing ([3]; TNFα 5 ng/ml at fracture site (FIG. 18)) was “less pronounced effect”, the fracture healing ([3]; TNFα 500 ng/ml (500 ng/kg) at fracture site, versus PBS vehicle (FIG. 18)) was “inhibitory” and the fracture healing ([3]; TNFα 500 ng/ml (500 ng/kg) at fracture site, versus PBS vehicle (FIG. 18), listed as rhTNFα) was “inhibits fracture healing”. For the same substance, the “fracture healing compared to control C57BI/6 mice” value ([3]; exogenous addition at fracture site, histology day 14, log dose range 5-500 ng/ml (FIG. 18)) was “accelerated fracture healing”, the “bone nodule formation by MDSC” value ([4]; Example 1, cytokine at 1 ng/ml, 5 weeks (FIG. 13)) was “promoted; also recorded: pronounced bone nodule formation” and the “bone nodule formation by MDSC” value ([4]; Example 3, recombinant cytokine at optimal dose for first 3 days, human serum-containing media (FIG. 26E)) was “stimulated vigorous nodule formation”. The “proliferation of MDSC” value ([5]; Example 1 discussion, TNFα 1 ng/ml) was “led to proliferation of MDSC”, the MDSC proliferation ([5]; Example 3, 1, 3 and 5 days in human serum-containing media ± recombinant human cytokine (FIG. 28)) was “do not promote MDSC proliferation” and the “decrease of osteoclast number” value (osteoclast) was greater than 90%.
